# Assay results from PubChem BioAssay (NCI).
#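 Protocol summary: plate cells (96-well), add compound at 5 concentrations, incubate 48 h, interpolate endpoints linearly. TGI: total growth inhibition.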
# Legend:
# Assay in all cases: inhibition of tumour cell growth, NCI panel, 48 h
# [1] = tested on: SK-OV-3 ovarian
# [2] = tested on: M14 melanoma
# [3] = tested on: OVCAR-5 ovarian
# [4] = tested on: TK-10 renal
# [5] = tested on: UACC-257 melanoma
# [6] = tested on: SF-295 CNS
# [7] = tested on: SNB-19 CNS
# [8] = tested on: MDA-MB-435
# [9] = tested on: NCI-H460 lung
# [10] = tested on: HL-60(TB) leukemia
# [11] = tested on: RXF 393 renal
# [12] = tested on: A498 renal
# [13] = tested on: DU-145 prostate
# [14] = tested on: RPMI-8226 leukemia
# [15] = tested on: SF-539 CNS
# [16] = tested on: UO-31 renal
# [17] = tested on: HCT-116 colon
# [18] = tested on: COLO 205 colon
# [19] = tested on: OVCAR-3 ovarian
# [20] = tested on: U251 CNS
# [21] = tested on: NCI-H23 lung
# [22] = tested on: HOP-92 NSCLC
# [23] = tested on: T-47D breast
# [24] = tested on: EKVX NSCLC
# [25] = tested on: ACHN renal
# [26] = tested on: SW-620 colon
# [27] = tested on: K-562 leukemia
# [28] = tested on: CAKI-1 renal
# [29] = tested on: IGROV1 ovarian
# [30] = tested on: SK-MEL-28 melanoma
# [31] = tested on: MDA-MB-231 breast
# [32] = tested on: A549 NSCLC
# [33] = tested on: OVCAR-8 ovarian
# [34] = tested on: SF-268 CNS
# [35] = tested on: KM12 colon
# [36] = tested on: SN12C renal
# [37] = tested on: MALME-3M melanoma
# [38] = tested on: LOX IMVI melanoma
# [39] = tested on: MCF7 breast
# [40] = tested on: 786-0 renal
# [41] = tested on: HOP-62 NSCLC
# [42] = tested on: MDA-N
# [43] = tested on: CCRF-CEM leukemia
# [44] = tested on: SK-MEL-2 melanoma
# [45] = tested on: UACC-62 melanoma
# [46] = tested on: NCI-H522 lung
# [47] = tested on: NCI/ADR-RES ovarian
# [48] = tested on: SNB-75 CNS
# [49] = tested on: SK-MEL-5 melanoma
# [50] = tested on: HS 578T breast
# [51] = tested on: SR leukemia
# [52] = tested on: HT29 colon
# [53] = tested on: HCT-15 colon
# [54] = tested on: BT-549 breast
# [55] = tested on: NCI-H226 lung
# [56] = tested on: MOLT-4 leukemia
# [57] = tested on: OVCAR-4 ovarian
# [58] = tested on: PC-3 prostate
# [59] = tested on: HCC-2998 colon
smiles,measurement,setting,value
CC1=C(CCC(C)CO)O[C@H]2C[C@H]3[C@@H]4CC[C@H]5C[C@@H](O)CC[C@]5(C)[C@H]4CC(=O)[C@]3(C)[C@@H]12 (stereo not given in full),TGI,[1],43.4 µM
same,TGI,[2],27 µM
same,TGI,[3],71.1 µM
same,TGI,[4],46.7 µM
same,TGI,[5],36.6 µM
same,TGI,[6],> 49.9 µM
same,TGI,[7],55.5 µM
same,TGI,[8],54.8 µM
same,TGI,[9],21.8 µM
same,TGI,[10],13.6 µM
same,TGI,[11],73.8 µM
same,TGI,[12],44 µM
same,TGI,[13],55.1 µM
same,TGI,[14],13.8 µM
same,TGI,[15],72.7 µM
same,TGI,[16],33.3 µM
same,TGI,[17],47.7 µM
same,TGI,[18],27.7 µM
same,TGI,[19],> 60.9 µM
same,TGI,[20],37.8 µM
same,TGI,[21],36.6 µM
same,TGI,[22],67.3 µM
same,TGI,[23],29.2 µM
same,TGI,[24],> 90.2 µM
same,TGI,[25],> 69.7 µM
same,TGI,[26],> 100 µM
same,TGI,[27],40.7 µM
same,TGI,[28],86.3 µM
same,TGI,[29],55 µM
same,TGI,[30],> 78.5 µM
same,TGI,[31],47.3 µM
same,TGI,[32],55.7 µM
same,TGI,[33],44.3 µM
same,TGI,[34],57.6 µM
same,TGI,[35],30.4 µM
same,TGI,[36],53.2 µM
same,TGI,[37],57.1 µM
same,TGI,[38],33.8 µM
same,TGI,[39],> 59.4 µM
same,TGI,[40],52.4 µM
same,TGI,[41],38.3 µM
same,TGI,[42],45.4 µM
same,TGI,[43],23.8 µM
same,TGI,[44],30.6 µM
same,TGI,[45],18.1 µM
same,TGI,[46],30.3 µM
same,TGI,[47],40.6 µM
same,TGI,[48],50.5 µM
same,TGI,[49],23.5 µM
same,TGI,[50],52.5 µM
same,TGI,[51],36.4 µM
same,TGI,[52],71.8 µM
same,TGI,[53],57.6 µM
same,TGI,[54],58.4 µM
same,TGI,[55],> 82.2 µM
same,TGI,[56],19.2 µM
same,TGI,[57],> 82.2 µM
same,TGI,[58],21.2 µM
Cc1cnc2c(c1)C(=O)N(c1ccc(Oc3ccccc3)cc1)S2(=O)=O,TGI,[1],> 100 µM
same,TGI,[2],> 100 µM
same,TGI,[3],> 100 µM
same,TGI,[4],> 100 µM
same,TGI,[5],> 100 µM
same,TGI,[6],> 100 µM
same,TGI,[7],> 100 µM
same,TGI,[8],> 100 µM
same,TGI,[9],> 100 µM
same,TGI,[10],> 100 µM
same,TGI,[13],> 100 µM
same,TGI,[14],> 100 µM
same,TGI,[15],> 100 µM
same,TGI,[16],> 100 µM
same,TGI,[17],> 100 µM
same,TGI,[18],> 100 µM
same,TGI,[19],> 100 µM
same,TGI,[20],> 100 µM
same,TGI,[21],> 100 µM
same,TGI,[22],> 100 µM
same,TGI,[23],> 100 µM
same,TGI,[24],> 100 µM
same,TGI,[25],> 100 µM
same,TGI,[26],> 100 µM
same,TGI,[27],> 100 µM
same,TGI,[28],> 100 µM
same,TGI,[29],> 100 µM
same,TGI,[30],> 100 µM
same,TGI,[31],> 100 µM
same,TGI,[32],> 100 µM
same,TGI,[33],> 100 µM
same,TGI,[34],> 100 µM
same,TGI,[35],> 100 µM
same,TGI,[36],> 100 µM
same,TGI,[37],> 100 µM
same,TGI,[38],> 100 µM
same,TGI,[39],> 100 µM
same,TGI,[40],> 100 µM
same,TGI,[41],> 100 µM
same,TGI,[42],> 100 µM
same,TGI,[43],> 100 µM
same,TGI,[44],> 100 µM
same,TGI,[45],> 100 µM
same,TGI,[46],> 100 µM
same,TGI,[47],> 100 µM
same,TGI,[48],> 100 µM
same,TGI,[49],> 100 µM
same,TGI,[50],> 100 µM
same,TGI,[51],> 100 µM
same,TGI,[52],> 100 µM
same,TGI,[53],> 100 µM
same,TGI,[54],> 100 µM
same,TGI,[55],> 100 µM
same,TGI,[59],> 100 µM
same,TGI,[56],> 100 µM
same,TGI,[57],> 100 µM
same,TGI,[58],> 100 µM
